Data on ten compounds can be found in ChEMBL document CHEMBL5154787 (J Med Chem, 2022).

Series [1] addresses T1, AP2-associated protein kinase 1 (Homo sapiens, UniProt Q2M2I8). In words: Inhibition of bacterially expressed GST-Xa-tagged human AAK1 using 5-FAM-labelled Aha-KEEQSQITSQVTGQIGWR-NH2 peptide as substrate incubated for 3 hrs in presence of ATP by electrophoretic analysis.
The target of series [2] is AP2-associated protein kinase 1 (Mus musculus, UniProt Q3UHJ0). The experiment in a line: Displacement of 3H-LP-927443 from AAK1 in C57BL6 mouse brain homogenate assessed as inhibition constant incubated for 1 hr by liquid scintillation counter analysis. Type of series: tissue-based.
Series [3] deals with T1, AP2-associated protein kinase 1. The experiment in a line: Inhibition of full length human AAK1 expressed in HEK293F cells assessed as suppression of AP2 phosphorylation measured after 3 hrs by Western blot analysis based cellular assay. The class given is cell-based. (In western blotting, separated proteins are transferred to a membrane and probed.)
A short description of series [4]: Metabolic stability in human liver microsomes assessed as parent compound remaining at 0.5 uM incubated for 10 mins in presence of NADPH by LC-MS/MS analysis. The class given is ADME, Microsome. The conditions noted are these: read-out: Stability. On the technique in general: Microsomes from liver hold many membrane-bound enzymes, among them those of drug oxidation.

Series [5] is described as follows: Metabolic stability in rat liver microsomes assessed as parent compound remaining at 0.5 uM incubated for 10 mins in presence of NADPH by LC-MS/MS analysis. The conditions noted are these: read-out: Stability. Type of series: ADME, Microsome.
Series [6] in a line: Metabolic stability in mouse liver microsomes assessed as parent compound remaining at 0.5 uM incubated for 10 mins in presence of NADPH by LC-MS/MS analysis. The class given is ADME, Microsome. The note with it: liver microsomes, read-out: Stability.
Another series concerns the target Cytochrome P450 3A4 (Homo sapiens, UniProt P08684). The experiment in a line: Inhibition of CYP3A4 (unknown origin) incubated for 10 mins in presence of NADPH by LC-MS/MS analysis. Type of series: ADME.

AP2-associated protein kinase 1 (Mus musculus, UniProt Q3UHJ0), sequence (Q3UHJ0 whole entry): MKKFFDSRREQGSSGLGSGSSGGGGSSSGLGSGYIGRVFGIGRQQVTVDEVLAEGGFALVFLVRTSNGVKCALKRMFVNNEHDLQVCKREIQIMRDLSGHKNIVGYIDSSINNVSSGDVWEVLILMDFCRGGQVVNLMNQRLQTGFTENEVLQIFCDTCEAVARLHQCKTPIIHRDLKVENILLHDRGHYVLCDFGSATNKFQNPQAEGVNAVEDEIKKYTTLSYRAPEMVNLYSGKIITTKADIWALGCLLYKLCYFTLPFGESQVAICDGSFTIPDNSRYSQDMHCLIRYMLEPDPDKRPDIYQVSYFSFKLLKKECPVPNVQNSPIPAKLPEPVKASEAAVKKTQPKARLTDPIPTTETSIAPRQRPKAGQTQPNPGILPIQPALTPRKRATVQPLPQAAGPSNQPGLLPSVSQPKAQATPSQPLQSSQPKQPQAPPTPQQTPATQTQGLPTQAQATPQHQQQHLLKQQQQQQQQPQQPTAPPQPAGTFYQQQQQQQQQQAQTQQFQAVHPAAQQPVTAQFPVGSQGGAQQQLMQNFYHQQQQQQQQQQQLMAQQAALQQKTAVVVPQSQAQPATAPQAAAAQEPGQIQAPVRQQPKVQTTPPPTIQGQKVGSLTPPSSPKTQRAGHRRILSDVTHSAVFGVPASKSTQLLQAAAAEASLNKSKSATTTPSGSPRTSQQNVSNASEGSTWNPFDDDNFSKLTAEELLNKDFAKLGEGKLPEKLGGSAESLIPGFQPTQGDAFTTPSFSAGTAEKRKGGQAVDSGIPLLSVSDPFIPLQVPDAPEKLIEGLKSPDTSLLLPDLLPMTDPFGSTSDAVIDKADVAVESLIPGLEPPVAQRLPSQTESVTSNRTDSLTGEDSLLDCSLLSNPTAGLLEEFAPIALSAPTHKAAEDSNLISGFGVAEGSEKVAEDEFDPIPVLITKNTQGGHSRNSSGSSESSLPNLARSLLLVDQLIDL
Cytochrome P450 3A4, sequence (P08684 whole entry): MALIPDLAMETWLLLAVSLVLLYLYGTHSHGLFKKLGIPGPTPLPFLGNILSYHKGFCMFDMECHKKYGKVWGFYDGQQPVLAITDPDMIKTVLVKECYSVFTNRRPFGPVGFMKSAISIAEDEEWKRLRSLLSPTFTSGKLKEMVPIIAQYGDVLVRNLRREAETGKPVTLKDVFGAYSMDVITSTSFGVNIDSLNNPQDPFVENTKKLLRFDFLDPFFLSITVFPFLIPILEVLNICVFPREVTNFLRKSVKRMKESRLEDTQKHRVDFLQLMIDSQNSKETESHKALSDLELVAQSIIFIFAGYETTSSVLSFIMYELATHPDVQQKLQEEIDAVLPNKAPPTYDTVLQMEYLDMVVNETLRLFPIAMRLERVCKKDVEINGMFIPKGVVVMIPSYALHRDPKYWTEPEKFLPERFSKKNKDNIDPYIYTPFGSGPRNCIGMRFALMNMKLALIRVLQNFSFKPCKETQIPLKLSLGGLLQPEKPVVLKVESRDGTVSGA
T1 sequence (Q2M2I8 whole entry): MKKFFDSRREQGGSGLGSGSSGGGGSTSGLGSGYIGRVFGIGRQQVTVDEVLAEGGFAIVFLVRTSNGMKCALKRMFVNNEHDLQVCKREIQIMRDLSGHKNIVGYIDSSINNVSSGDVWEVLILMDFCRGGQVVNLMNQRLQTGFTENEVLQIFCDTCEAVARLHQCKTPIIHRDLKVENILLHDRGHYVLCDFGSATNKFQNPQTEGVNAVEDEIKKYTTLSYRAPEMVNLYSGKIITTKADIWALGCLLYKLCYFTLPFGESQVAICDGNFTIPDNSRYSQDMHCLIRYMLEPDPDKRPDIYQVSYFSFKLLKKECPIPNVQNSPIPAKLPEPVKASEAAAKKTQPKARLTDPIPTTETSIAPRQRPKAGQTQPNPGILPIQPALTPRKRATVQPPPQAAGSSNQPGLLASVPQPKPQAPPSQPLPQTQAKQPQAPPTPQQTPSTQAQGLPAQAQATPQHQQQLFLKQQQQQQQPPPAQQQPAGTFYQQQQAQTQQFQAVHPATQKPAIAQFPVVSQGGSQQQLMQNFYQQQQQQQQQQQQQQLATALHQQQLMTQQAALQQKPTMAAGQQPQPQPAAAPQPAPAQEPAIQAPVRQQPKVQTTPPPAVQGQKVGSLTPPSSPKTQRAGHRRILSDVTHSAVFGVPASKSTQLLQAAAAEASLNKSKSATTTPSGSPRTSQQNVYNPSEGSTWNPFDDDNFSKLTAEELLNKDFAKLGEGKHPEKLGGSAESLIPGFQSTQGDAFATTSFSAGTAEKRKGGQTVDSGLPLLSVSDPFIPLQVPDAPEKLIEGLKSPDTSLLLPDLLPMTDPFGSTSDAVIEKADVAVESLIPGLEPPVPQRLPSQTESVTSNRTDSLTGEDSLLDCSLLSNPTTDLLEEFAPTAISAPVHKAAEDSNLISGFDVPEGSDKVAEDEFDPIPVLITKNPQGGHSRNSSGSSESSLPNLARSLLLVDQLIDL

By IC50 is commonly meant the concentration that inhibits the measured activity by half. For orientation: Ki means a dissociation constant, usually derived from enzyme kinetics or from competition with a known ligand. For the compound `CC(=O)Nc1cc(-c2cc(F)c(OC[C@@H](N)CC(C)C)c(C(F)(F)F)c2)ccn1`, the IC50 is 5 nM in series [1], 4.8 nM in series [3] and 470 nM at Cytochrome P450 3A4. Also, the Ki in series [2] was 1.5 nM. Moreover, the remaining at 10 min, 0.5 µM in series [4] is 74%; in series [5], 91%; in series [6] it was 69%.

Turning to `COC(=O)Nc1cc(-c2ccc(OC[C@@](C)(N)CC(C)C)c(C#N)c2)ccn1`, the IC50 in series [1] was found to be 0.5 nM; in series [3], 0.8 nM; at Cytochrome P450 3A4, 13000 nM. The inhibitory constant (Ki) in series [2] stood at 0.07 nM. In addition, the remaining at 10 min, 0.5 µM in series [4] is 57%; in series [5], 88%; in series [6], 69%.

Regarding `CC(=O)Nc1cc(-c2ccc(OC[C@@](C)(N)CC(C)C)c(OC(F)(F)F)c2)ccn1`, the 50% inhibitory concentration (IC50) was 0.8 nM in series [1], 1.6 nM in series [3] and 9500 nM at Cytochrome P450 3A4. Further, the Ki in series [2] stood at 0.07 nM. The remaining at 10 min, 0.5 µM in series [4] is 54%; in series [5] it was 87%; in series [6] it was 27%.

In the case of `COC(=O)Nc1cc(-c2ccc(OC[C@@](C)(N)CC(C)C)c(C(F)(F)F)c2)ccn1`, the IC50 in series [1] came to 0.3 nM; in series [3] it was 1.5 nM; on Cytochrome P450 3A4, 6900 nM. For the same compound, the Ki in series [2] stood at 0.05 nM. Also, the values for the remaining at 10 min, 0.5 µM in series [4], in series [5] and in series [6] were 80%, 74% and 68%, respectively.

Turning to `COC(=O)Nc1cc(-c2ccc(OC[C@@H](N)CC(C)C)c(-c3ccno3)c2)ccn1`, the 50% inhibitory concentration (IC50) in series [1] was 0.8 nM; in series [3], 4.1 nM; at Cytochrome P450 3A4 it was 180 nM. Besides, the Ki in series [2] stood at 0.08 nM. In addition, the remaining at 10 min, 0.5 µM worked out at 91% in series [4], 76% in series [5] and 53% in series [6].

Take `CC(=O)Nc1cc(-c2ccc(OC[C@@](C)(N)CC(C)C)c(C(F)(F)F)c2)ccn1`: the 50% inhibitory concentration (IC50) in series [1] was found to be 0.4 nM; in series [3], 0.4 nM; on Cytochrome P450 3A4 it was 14000 nM. Also, the inhibitory constant (Ki) in series [2] came out at 0.04 nM. In addition, the remaining at 10 min, 0.5 µM in series [4] came out at 66%; in series [5] it was 90%; in series [6] it was 54%.

For `CC(=O)Nc1cc(-c2cc(F)c(OC[C@@H](N)CC(C)C)cc2F)ccn1`, the 50% inhibitory concentration (IC50) in series [1] was determined as 1.3 nM; in series [3] it was 6.7 nM; at Cytochrome P450 3A4, 7000 nM. Besides, the Ki in series [2] came out at 0.6 nM. Besides, the figures for the remaining at 10 min, 0.5 µM in series [4], in series [5] and in series [6] were 78%, 90% and 70%, respectively.

Turning to `CC(=O)Nc1cc(-c2ccc(OC[C@@](C)(N)CC(C)C)c(F)c2)ccn1`, the IC50 in series [1] is 0.8 nM; in series [3], 3.7 nM; at Cytochrome P450 3A4, > 20000 nM. For the same compound, the inhibitory constant (Ki) in series [2] was 0.24 nM. Besides, the remaining at 10 min, 0.5 µM in series [4] is 91%; in series [5] it was 92%; in series [6] it was 70%.

Consider `COC(=O)Nc1cc(-c2ccc(OC[C@@](C)(N)CC(C)C)c(C(F)F)c2)ccn1`, for which the IC50 in series [1] is 0.5 nM; in series [3] it was 0.6 nM; on Cytochrome P450 3A4, > 20000 nM. Further, in series [2], the inhibition constant (Ki) was found to be 0.04 nM. Besides, the remaining at 10 min, 0.5 µM in series [4] came out at 88%; in series [5], 86%; in series [6] it was 69%.

For the compound `COC(=O)Nc1cc(-c2ccc(OC[C@@](C)(N)CC(C)C)c(OC(F)(F)F)c2)ccn1`, the values for the IC50 (in series [1]; in series [3]; at Cytochrome P450 3A4) were 0.6 nM, 0.2 nM and 7800 nM, respectively. Moreover, the Ki in series [2] was found to be 0.04 nM. Besides, the remaining at 10 min, 0.5 µM was 81% in series [4], 83% in series [5] and 43% in series [6].
